Test results: patent publication US20220062205A1, “TREATMENT OF GASTROINTESTINAL DISORDERS AND SYMPTOMS THEREOF” (Indiana University Research and Technology Corporation, priority 2018, published 2022)

Legend:
Winnie mice [1] = assay: Intestinal inflammation: faecal lipocalin (Lcn)-2 ELISA; format: in vivo, mouse; settings: day 14; mean±SEM, n=5
Experimental: The small molecular APE1/Ref-1 antagonist; APX3330, was administered via IP injections in Winnie mice at a dose of 25 mg/kg (30 G needle, max volume 200 μl) dissolved in Cremphore (2%) (Sigma-Aldrich): Ethanol (2%) in sterile water (96%). Mice received alternating IP injections twice a day with 12-hour intervals, over the course of two weeks during predominate intestinal inflammation. Winnie-sham treated mice received vehicle injections excluding APX3330 drugs. All mice were monitored, weighed and faecal pellets were collected over the course of treatment. Faecal lipocalin (Lcn)-2 ELISA kit (Abcam) were used to detect efficacy of APX3330 on levels of colonic inflammation. Faecal samples collected on day 14 of treatments from control C57BL/6, Winnie-Sham treated and Winnie-APX3330 treated mice were reconstituted in PBS-0.1 TWEEN 20 (100 mg/mL) to form a homogenous faecal suspension. Homogenous suspension was centrifuged for 10 minutes at 12000 RPM at 4° C. Lcn-2 were determined in the clear supernatants. All samples were repeated in duplicates for statistical value. […] Microplate reader capable of measuring absorbance at 450 nm, with the correction wavelength set at 540 nm was used to detect Lcn-2 protein (pg/mL) in faecal pellet supernatant.

Winnie mice [2] = assay: RNA sequencing of pooled distal colon; format: in vivo, mouse; settings: n=6, relative to control C57BL/6 mice
Experimental: The small molecular APE1/Ref-1 antagonist; APX3330, was administered via IP injections in Winnie mice at a dose of 25 mg/kg (30 G needle, max volume 200 μl) dissolved in Cremphore (2%) (Sigma-Aldrich): Ethanol (2%) in sterile water (96%). Mice received alternating IP injections twice a day with 12-hour intervals, over the course of two weeks during predominate intestinal inflammation. Winnie-sham treated mice received vehicle injections excluding APX3330 drugs. All mice were monitored, weighed and faecal pellets were collected over the course of treatment. Control C57BL/6, Winnie-sham treated and Winnie-APX3330 fresh colon tissues were collected and snap frozen into liquid nitrogen. Samples were then sent to the Australian Genome Research Facility (AGRF) where next generation sequencing (NGS) was completed. NGS will be carried out by removing 2-3 μg of RNA per sample (≥100 ng/μl). The integrity of the RNA will be assessed by a Bioanalyzer as samples are to have a RNA integrity number (RIN) value of ≥8.0. The RNA samples went through a DNase treatment ready for library preparation. […] Samples underwent quality and adapter trimming, alignment, quantification and normalization. […] Final data obtained from AGRF were analysed and interpreted to determine APE1/Ref-1 associated pathways.

CCCCCCCCCC(=CC1=C(C)C(=O)C(OC)=C(OC)C1=O)C(=O)O [APX3330]
Lcn-2 faecal level (Winnie mice [1]): 36 ± 2.0 pg/mL | down regulation (fold change) of RNA expression of S100a8, Khdc1a, Lrg1, Retnlb, Nos2, Ido1 and REG3B (Winnie mice [2]): > 2
